The values that follow come from the supplement of paper PMC12137928.

The test concerns HCT116. To be noted: 72 h. A digest of the protocol: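 IC50 and maximal efficacy were derived from four-parameter Hill curve fits. The underlying CellTiter-Glo luminescence was scaled so that vehicle equals 0% and positive control equals -100%, and was then pattern-corrected. HCT116 cells had been seeded in 1536-well plates at 250 per well.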

SMILES strings stand for the structures. Structures can show the parent of a compound that is named as a salt.

In the case of `Cc1ccc(/N=C/N(C)/C=N/c2ccc(C)cc2C)c(C)c1` [Amitraz], the IC50 cell viability was above 45.8 µM (ICRF193 0 nM) and above 45.8 µM (ICRF193 200 nM).

For the compound `CC(C)NCC(O)c1ccc(O)c(O)c1` (stereo not given) [Isoprenaline hydrochloride], the IC50 cell viability runs as follows: (ICRF193 0 nM) above 45.8 µM; (ICRF193 200 nM) above 45.8 µM.

In the case of `CCCc1nc(C(C)(C)O)c(C(=O)OCc2oc(=O)oc2C)n1Cc1ccc(-c2ccccc2-c2nnn[nH]2)cc1` [Olmesartan medoxomil], the IC50 cell viability is above 45.8 µM (ICRF193 0 nM) and above 45.8 µM (ICRF193 200 nM).

With `CCCN1CCCC[C@H]1C(=O)Nc1c(C)cccc1C` [Ropivacaine hydrochloride], the IC50 cell viability is, setting by setting: (ICRF193 0 nM) above 45.8 µM; (ICRF193 200 nM) above 45.8 µM.

Turning to `CC(=O)Oc1cc2c(s1)CCN(C(C(=O)C1CC1)c1ccccc1F)C2` (stereo not given) [Prasugrel], the IC50 cell viability by setting is: (ICRF193 0 nM) above 45.8 µM; (ICRF193 200 nM) above 45.8 µM.

On to `CCN(CC)CCNC(C(=O)OCCC(C)C)c1ccccc1` (stereo not given) [Camylofin], for which the IC50 cell viability by setting is: (ICRF193 0 nM) above 45.8 µM; (ICRF193 200 nM) above 45.8 µM.

As to `O=C(O)CCSC[C@H]1O[C@@H]2O[C@H]3[C@H](O)[C@@H](O)[C@@H](O[C@H]4[C@H](O)[C@@H](O)[C@@H](O[C@H]5[C@H](O)[C@@H](O)[C@@H](O[C@H]6[C@H](O)[C@@H](O)[C@@H](O[C@H]7[C@H](O)[C@@H](O)[C@@H](O[C@H]8[C@H](O)[C@@H](O)[C@@H](O[C@H]9[C@H](O)[C@@H](O)[C@@H](O[C@H]1[C@H](O)[C@H]2O)O[C@@H]9CSCCC(=O)O)O[C@@H]8CSCCC(=O)O)O[C@@H]7CSCCC(=O)O)O[C@@H]6CSCCC(=O)O)O[C@@H]5CSCCC(=O)O)O[C@@H]4CSCCC(=O)O)O[C@@H]3CSCCC(=O)O` [Sugammadex], the IC50 cell viability is, setting by setting: (ICRF193 0 nM) above 45.8 µM; (ICRF193 200 nM) above 45.8 µM.

`CC1(C)[C@@H](O[C@H]2O[C@H](C(=O)O)[C@@H](O)[C@H](O)[C@H]2O[C@@H]2O[C@H](C(=O)O)[C@@H](O)[C@H](O)[C@H]2O)CC[C@]2(C)[C@H]3C(=O)C=C4[C@@H]5C[C@@](C)(C(=O)O)CC[C@]5(C)CC[C@@]4(C)[C@]3(C)CC[C@@H]12` [Ammonium Glycyrrhizinate]: the IC50 cell viability is above 45.8 µM (ICRF193 0 nM) and above 45.8 µM (ICRF193 200 nM).

With `C[N+]12CCCCC1CCC(=C(c1cccs1)c1cccs1)C2` (stereo not given) [Tiquizium bromide], the IC50 cell viability (ICRF193 0 nM) was above 45.8 µM and the IC50 cell viability (ICRF193 200 nM) is above 45.8 µM.

As for `Nc1ccc(C(=O)Oc2ccccc2)c(O)c1` [Phenyl 4-aminosalicylate], the IC50 cell viability (ICRF193 0 nM) is above 45.8 µM and the IC50 cell viability (ICRF193 200 nM) was above 45.8 µM.

For `CN(CCCCCCCCCCN(C)C(=O)Oc1cccc([N+](C)(C)C)c1)C(=O)Oc1cccc([N+](C)(C)C)c1` [Demecarium bromide], the IC50 cell viability runs as follows: (ICRF193 0 nM) above 45.8 µM; (ICRF193 200 nM) above 45.8 µM.

The compound `N#Cc1ccc(Oc2ccc3c(c2)COB3O)cc1` [AN-2728] registered an IC50 cell viability (ICRF193 0 nM) above 45.8 µM and an IC50 cell viability (ICRF193 200 nM) above 45.8 µM.

Take `OCCCNc1ccccc1` [3-Anilinopropan-1-ol]: the IC50 cell viability runs as follows: (ICRF193 0 nM) above 45.8 µM; (ICRF193 200 nM) above 45.8 µM.

As to `CN1C(CSCC(F)(F)F)Nc2cc(Cl)c(S(N)(=O)=O)cc2S1(=O)=O` (stereo not given) [Polythiazide], the IC50 cell viability is, setting by setting: (ICRF193 0 nM) above 45.8 µM; (ICRF193 200 nM) above 45.8 µM.

Compound `O=C(NCC(O)CO)c1c(I)c(C(=O)NCC(O)CO)c(I)c(N(CCO)C(=O)CO)c1I` (stereo not given) [Ioversol] registered an IC50 cell viability (ICRF193 0 nM) above 45.8 µM and an IC50 cell viability (ICRF193 200 nM) above 45.8 µM.

Consider `OCc1ccccc1O` [Salicyl alcohol], for which the IC50 cell viability was above 45.8 µM (ICRF193 0 nM) and above 45.8 µM (ICRF193 200 nM).

Turning to `OC[C@@H](O)[C@H](O)[C@H](O)[C@@H](O)CO` [D-Galactitol], the IC50 cell viability by setting is: (ICRF193 0 nM) above 45.8 µM; (ICRF193 200 nM) above 45.8 µM.

As to `C[C@H]1[C@H](NC(=O)/C(=N\OC(C)(C)C(=O)O)c2csc(N)n2)C(=O)N1S(=O)(=O)O` [Aztreonam], the IC50 cell viability is, setting by setting: (ICRF193 0 nM) above 45.8 µM; (ICRF193 200 nM) above 45.8 µM.

As to `Cc1nc(-c2ccc(OCC(C)C)c(C#N)c2)sc1C(=O)O` [Febuxostat], the IC50 cell viability is above 45.8 µM (ICRF193 0 nM) and above 45.8 µM (ICRF193 200 nM).

As to `O=C(O)CSCC(=O)NC1CCSC1=O` (stereo not given) [Erdosteine], the IC50 cell viability reads like this: (ICRF193 0 nM) above 45.8 µM; (ICRF193 200 nM) above 45.8 µM.

Turning to `CC(COc1ccccc1)NC(C)C(O)c1ccc(O)cc1` (stereo not given) [Isoxsuprine hydrochloride], the IC50 cell viability is above 45.8 µM (ICRF193 0 nM) and above 45.8 µM (ICRF193 200 nM).

In the case of `CN(C)C(=O)N[C@H]1CC[C@H](CCN2CCN(c3cccc(Cl)c3Cl)CC2)CC1` [Cariprazine], the IC50 cell viability by setting is: (ICRF193 0 nM) above 45.8 µM; (ICRF193 200 nM) above 45.8 µM.

On to `C=CC[C@]1(O)CC[C@H]2[C@@H]3CCC4=CCCC[C@@H]4[C@H]3CC[C@@]21C` [Allylestrenol], for which the IC50 cell viability runs as follows: (ICRF193 0 nM) above 45.8 µM; (ICRF193 200 nM) above 45.8 µM.

For `C[N+](C)(CCCCCC[N+](C)(C)C1c2ccccc2-c2ccccc21)C1c2ccccc2-c2ccccc21` [Hexafluorenium dibromide], the IC50 cell viability reads like this: (ICRF193 0 nM) above 45.8 µM; (ICRF193 200 nM) above 45.8 µM.

Take `CN(C)C(=O)Oc1ccc[n+](C)c1` [Pyridostigmine bromide]: the IC50 cell viability is above 45.8 µM (ICRF193 0 nM) and above 45.8 µM (ICRF193 200 nM).

Turning to `NC(=O)CC[C@@H](N)C(=O)O` [D-Glutamine], the IC50 cell viability by setting is: (ICRF193 0 nM) above 45.8 µM; (ICRF193 200 nM) above 45.8 µM.

`CCC(=O)O[C@]1(C(=O)COC(C)=O)CC[C@H]2[C@@H]3C[C@H](C)C4=CC(=O)C=C[C@]4(C)[C@H]3[C@@H](O)C[C@@]21C` [Methylprednisolone aceponate] had an IC50 cell viability (ICRF193 0 nM) above 45.8 µM and an IC50 cell viability (ICRF193 200 nM) above 45.8 µM.

As for `CN(c1nccc(=O)[nH]1)C1CCN(c2nc3ccccc3n2Cc2ccc(F)cc2)CC1` [Mizolastine], the IC50 cell viability by setting is: (ICRF193 0 nM) above 45.8 µM; (ICRF193 200 nM) above 45.8 µM.

On to `CN(C)CCOc1ccccc1Cc1ccccc1` [Phenyltoloxamine citrate], for which the IC50 cell viability (ICRF193 0 nM) is above 45.8 µM and the IC50 cell viability (ICRF193 200 nM) is above 45.8 µM.

On to `COc1cc(C)c(/C=C/C(C)=C/C=C/C(C)=C/C(=O)O)c(C)c1C` [Acitretin], for which the IC50 cell viability by setting is: (ICRF193 0 nM) above 45.8 µM; (ICRF193 200 nM) above 45.8 µM.

In the case of `O=C(NNCS(=O)(=O)O)c1ccncc1` [Isoniazid sodium methanesulfonate], the IC50 cell viability was above 45.8 µM (ICRF193 0 nM) and above 45.8 µM (ICRF193 200 nM).

For the compound `COc1ccc(-c2cc(=S)ss2)cc1` [Anethole trithione], the IC50 cell viability by setting is: (ICRF193 0 nM) above 45.8 µM; (ICRF193 200 nM) above 45.8 µM.

On to `NS(=O)(=O)c1cc2c(cc1Cl)NC(Cc1ccccc1)NS2(=O)=O` (stereo not given) [Benzylhydrochlorothiazide], for which the IC50 cell viability (ICRF193 0 nM) is above 45.8 µM and the IC50 cell viability (ICRF193 200 nM) is above 45.8 µM.

In turn, `C#CC(C)(CC)OC(=O)c1ccccc1C(=O)O` (stereo not given) [Phthalofyne] showed an IC50 cell viability (ICRF193 0 nM) above 45.8 µM and an IC50 cell viability (ICRF193 200 nM) above 45.8 µM.

Consider `C[C@]1(COc2ccc(N3CCC(Oc4ccc(OC(F)(F)F)cc4)CC3)cc2)Cn2cc([N+](=O)[O-])nc2O1` [Delamanid], for which the IC50 cell viability reads like this: (ICRF193 0 nM) above 45.8 µM; (ICRF193 200 nM) above 45.8 µM.

`Cc1cc2c(cc1S(N)(=O)=O)S(=O)(=O)CCC2` [Meticrane]: the IC50 cell viability is, setting by setting: (ICRF193 0 nM) above 45.8 µM; (ICRF193 200 nM) above 45.8 µM.

`Cc1ccc(C(=O)C(=O)O)cc1C` [Sodium 3, 4-dimethylphenyl-glyoxylate]: the IC50 cell viability was above 45.8 µM (ICRF193 0 nM) and above 45.8 µM (ICRF193 200 nM).

For the compound `CCOC(CN1CCN(CC(C)C(=O)c2ccccc2)CC1)c1ccccc1` (stereo not given) [Eprazinone dihydrochloride], the IC50 cell viability runs as follows: (ICRF193 0 nM) above 45.8 µM; (ICRF193 200 nM) above 45.8 µM.

On to `CC1(C)CCC(CN2CCN(c3ccc(C(=O)NS(=O)(=O)c4ccc(NCC5CCOCC5)c([N+](=O)[O-])c4)c(Oc4cnc5[nH]ccc5c4)c3)CC2)=C(c2ccc(Cl)cc2)C1` [Venetoclax (ABT-199)], for which the IC50 cell viability was above 45.8 µM (ICRF193 0 nM) and above 45.8 µM (ICRF193 200 nM).

In the case of `COc1nccnc1NS(=O)(=O)c1ccc(N)cc1` [Sulfalene], the IC50 cell viability reads like this: (ICRF193 0 nM) above 45.8 µM; (ICRF193 200 nM) above 45.8 µM.

As for `O=c1[nH]cnc2c([C@@H]3N[C@H](CO)[C@@H](O)[C@H]3O)c[nH]c12` [Forodesine (hydrochloride)], the IC50 cell viability by setting is: (ICRF193 0 nM) above 45.8 µM; (ICRF193 200 nM) above 45.8 µM.

`Cc1cc2cc3c(C)cc(=O)oc3c(C)c2o1` [Trioxsalen] came in with an IC50 cell viability (ICRF193 0 nM) above 45.8 µM and an IC50 cell viability (ICRF193 200 nM) above 45.8 µM.

For the compound `C[C@@H]1O[C@@H]1P(=O)(O)O` [FOSFOMYCIN], the IC50 cell viability was above 45.8 µM (ICRF193 0 nM) and above 45.8 µM (ICRF193 200 nM).

Turning to `CC(=O)O[C@]1(C(C)=O)CC[C@H]2[C@@H]3C[C@H](C)C4=CC(=O)C=C[C@]4(C)[C@@]3(F)[C@@H](O)C[C@@]21C` [Fluorometholone Acetate], the IC50 cell viability by setting is: (ICRF193 0 nM) above 45.8 µM; (ICRF193 200 nM) above 45.8 µM.

For the compound `Oc1cc(O)c2c(c1)O[C@H](c1ccc(O)c(O)c1)[C@H](O)C2` [(-)-Epicatechin], the IC50 cell viability by setting is: (ICRF193 0 nM) above 45.8 µM; (ICRF193 200 nM) above 45.8 µM.

As for `CNCc1cc(-c2ccccc2F)n(S(=O)(=O)c2cccnc2)c1` [TAK 438], the IC50 cell viability runs as follows: (ICRF193 0 nM) above 45.8 µM; (ICRF193 200 nM) above 45.8 µM.

For the compound `CCN(CC)CC(=O)OCC(=O)[C@@]1(O)CC[C@H]2[C@@H]3CCC4=CC(=O)CC[C@]4(C)[C@H]3[C@@H](O)C[C@@]21C` [Hydrocortamate], the IC50 cell viability (ICRF193 0 nM) was above 45.8 µM and the IC50 cell viability (ICRF193 200 nM) is above 45.8 µM.

In turn, `CCCCCCCCCCCCCC(=O)OC(C)C` [Isopropyl tetradecanoic acid] came in with an IC50 cell viability (ICRF193 0 nM) above 45.8 µM and an IC50 cell viability (ICRF193 200 nM) above 45.8 µM.

With `CC(C)[C@H]1CC[C@H](C(=O)N[C@H](Cc2ccccc2)C(=O)O)CC1` [Nateglinide], the IC50 cell viability was above 45.8 µM (ICRF193 0 nM) and above 45.8 µM (ICRF193 200 nM).

With `CCc1cc2c(cc1N1CCC(N3CCOCC3)CC1)C(C)(C)c1[nH]c3cc(C#N)ccc3c1C2=O` [Alectinib], the IC50 cell viability is, setting by setting: (ICRF193 0 nM) above 45.8 µM; (ICRF193 200 nM) above 45.8 µM.
